These results are taken from US7109380B2, “Cyclopentenedione antifungal compounds and methods for their use” (The University of Mississippi, priority 2004, dated 2006).

Assay [1] deals with Azole-susceptible and Azole-resistant Candida albicans Strains. Kind of assay: Antifungal activity against azole-susceptible and azole-resistant patient isolates. It counts as cell-based. The note with it: for IC50 / IC80: Candida albicans. On the procedure:
Antimicrobial Assay. Susceptibility testing is performed using a modified version of the National Committee for Clinical Laboratory Standards methods. M intracelluare is tested using a modified method of Franzblau, et al. Seventy-two to 96 h prior to the assay, the M intracellulare subculture is prepared by resuspending cells from the surface of the slant in Middlebrook 7H9 broth with OADC enrichment and incubating at 37° C. and 10% CO2. On the day of the assay, prepared samples (dissolved in DMSO) are serially-diluted using 20%/0.9% DMSO/saline and transferred in duplicate to 96 well flat bottom microplates. Candida spp. and C. neoformans inocula are prepared by picking 1–3 colonies from agar plates and resuspending in ˜5 mL 0.9% sterile saline. The absorption of 10011 of the saline suspensions and the M. intracellulare subculture at 630 nm using the EL-340 Biokinetics Reader (Bio-Tek Instruments, Vermont) is compared either the 0.5 McFarland standard of 0.03 (Mi) or standard curves. The microorganisms are diluted in broth [RPMI 1640/2% dextrose/MOPS at pH 7.3 (Cellgro) for Candida spp., Sabouraud Dextrose for C. neoformans, and 5% Alamar Blue™(BioSource International, Camarillo, Calif.) in Middlebrook 7H9 broth with OADC enrichment, pH=7.3 for M. intracellulare to afford final target inocula of: Candida spp.: 1.0×10^4, C. neoformans: 1.0×10^5, and M. intracellulare: 2.0×10^6 after addition to the samples. The microbial inocula are added to the samples to achieve a final volume of 200 μl. Growth (saline only), solvent and blank (media only) controls are included on each test plate. Drug controls [Ciprofloxacin (ICN Biomedicals, Ohio) for bacteria and Amphotericin B (ICN Biomedicals, Ohio) for fungi] are included in each assay. All organisms are read at either 630 nm using the EL-340 Biokinetics Reader (Bio-Tek Instruments, Vermont) or 544ex/590em, (M. intracellulare) using the Polarstar Galaxy Plate Reader (BMG LabTechnologies, Germany) prior to and after incubation: Candida spp. at 37° C. for 18–24 h, C. neoformans at 30° C. for 72 h, and M. intracellulare at 37° C. and 10% CO2 for 72 h. Percent growth is calculated and plotted versus test concentration to afford the IC50 (sample concentration that affords 50% growth of the organism) and the minimum inhibitory concentration (MIC) and minimum fungicidal or bactericidal concentrations (MFC/MBCs). The MIC is defined as the lowest test concentration that allows no detectable growth (for M. intracellulare no color change from blue to pink). Minimum fungicidal or bactericidal concentrations are determined by removing 5 μl from each clear (or blue) well, transferring to agar and incubating as previously mentioned. The MFC/MBC is defined as the lowest test concentration that kills 100% of the organism (allows no growth on agar).
The bioassay method is a modified version of the National Committee for Clinical Laboratory Standards methods, and is same as the one described in example 8 by which the biological data of compounds 1 and 2 (Tables 1 and 2) were obtained, except that the pH of the culture media for Candida spp. was changed from 7.3 to 4.5.

The test system of another assay is Phomopsis obscurans. Kind of assay: 96-well microtiter fungal growth assay. The assay is classed as cell-based. The note with it: Paraphomopsis obscurans, 120 h, read-out: IC50 (growth inhibition). The source says:
Pathogen collection. Isolates of Colletotrichum acutatum Simmonds, Colletotrichum fragariae Brooks, and Colletotrichum gloeosporioides (Penz.) Penz. & Sacc. in Penz. were obtained from B. J. Smith, USDA, ARS, Small Fruit Research Station, Poplarville, Mass. Colletotrichum fragariae (isolate CF63), C. acutatum (isolate CAGoff), and C. gloeosporioides (isolate CG162) were used for all pathogen and bioautography studies. Isolate CF63 is one of the most virulent isolates at infecting strawberry plants and inducing both crown and fruit rot (Smith and Black, 1990). CF63, CAGoff, and CG162 were used as standard test isolates because of our extensive knowledge of these isolates and their known fungicide sensitivity profiles in both bioautography and microtiter formats. The three Colletotrichum species were isolated from strawberry (Fragaria xananassa Duchesne). Botrytis cinerea Pers.:Fr, was isolated from commercial grape (Vitis vinifera L.) and Fusarium oxysporum Schlechtend:Fr from orchid (Cynoches sp.) by David E. Wedge, USDA ARS Natural Products Utilization Research Unit. Phomopsis viticola (Sacc.) and P. obscurans (Ellis & Everh.) Sutton were from Mike A. Ellis, Ohio State University, Wooster, Ohio. Fungi were grown on potato-dextrose agar (PDA, Difco, Detroit Mich.) in 9 cm petri dishes and incubated in a growth chamber at 24±2° C. and under cool-white fluorescent lights ([…]·m^−2·sec^−1 light) with 12-h photoperiod.
Inoculum preparation. Conidia were harvested from 7–10 day-old cultures by flooding plates with 5 mL of sterile distilled water and dislodging conidia by softly brushing the colonies with an L-shaped glass rod. Conidial suspensions were filtered through sterile miracloth (Calbiochem-Novabiochem Corp., La Jolla Calif.) to remove mycelia. Conidia concentrations were determined photometrically, from a standard curve based on the absorbance at 625 nm and suspensions were then adjusted with sterile distilled water to a concentration of 1.0×10^6 conidia/mL.
Microtiter assay. A standardized 96-well microtiter plate assay developed for discovery of natural product fungicidal agents. A 96-well microtiter assay was used to determine sensitivity of B. cinerea, C. acutatum, C. fragariae, C. gloeosporioides, F. oxysporum, Phomopsis viticola, and P. obscurans to the various antifungal agents in comparison with known fungicidal standards. Vinclozolin, captan, and thiabendazole, which represent three different modes of action, were used as standards in this experiment. Each fungus was challenged in a dose-response format using test compounds where the final treatment concentrations were 0.3, 3.0 and 30.0 μM. Microtiter plates (Nunc MicroWell, untreated; Roskilde, Denmark) were covered with a plastic lid and incubated in a growth chamber at 24±1 C and 12 h photoperiod under 60±5 μmol light. Growth was then evaluated by measuring absorbance of each well at 620 nm using a microplate photometer (Packard Spectra Count, Packard Instrument Co., Downers Grove, Ill.).
Microbioassay Experimental Design. Chemical sensitivity of each fungus 96-well microtiter assay is used to determine sensitivity of B. cinerea, C. acutatum, C. fragariae, C. gloeosporioides, F. oxysporum, Phomopsis viticola, and P. obscurans. Each chemical is evaluated in duplicate at each dose (0.3, 3.0 and 30.0 μM) and repeated twice in time. Sixteen wells containing broth and inoculum serves as positive controls, eight wells containing solvent at the appropriate concentration and broth without inoculum are used as negative controls. […] Treatments are arranged as a split-plot design replicated twice in time. Whole-plots were fungal isolates and sub-plots are chemicals. Each dose level and response time is analyzed separately. The SAS system's analysis of variance procedure (Statistical Analysis System, Cary, N.C.) is used to identify significant factors and Fisher's protected LSD is used to separate means.

The mark [2] stands for this setting: Isolate 1, azole-susceptible strain (first listing, r6).
Setting [3] is: Isolate 1, azole-susceptible strain (second listing, r10).
Where [4] appears, read: Isolate 2, azole-resistant strain.
[5] abbreviates: Isolate 5, azole-resistant strain.
Setting [6] is: Isolate 8, azole-resistant strain.
Setting [7] is: Isolate 17, azole-resistant strain.

Values after ≈ are worked out from the molar mass of the structure shown.

As for `OC(Cn1cncn1)(Cn1cncn1)c1ccc(F)cc1F` [Fluconazole, reference compound], the IC50 (as a rule, the midpoint of a concentration-inhibition curve) in assay [1] (setting [2]) is 1 mg/L (≈ 3.27 µM); in assay [1] (setting [3]), 0.1 mg/L (≈ 0.327 µM); in assay [1] (setting [4]), 1 mg/L (≈ 3.27 µM); in assay [1] (setting [5]), 7.5 mg/L (≈ 24.5 µM); in assay [1] (setting [6]), 15 mg/L (≈ 49 µM); in assay [1] (setting [7]) it was 40 mg/L (≈ 131 µM). Besides, the IC80 (as a rule, the concentration at which the effect reaches the 80% level) came to 1.5 mg/L (≈ 4.9 µM) in assay [1] (setting [2]); 0.2 mg/L (≈ 0.653 µM) in assay [1] (setting [3]); 5 mg/L (≈ 16.3 µM) in assay [1] (setting [4]); 10 mg/L (≈ 32.7 µM) in assay [1] (setting [5]); 20 mg/L (≈ 65.3 µM) in assay [1] (setting [6]); 95 mg/L (≈ 310 µM) in assay [1] (setting [7]). Moreover, the IC95 (in general, the concentration at which the effect reaches the 95% level) turned out to be 2.00 mg/L (≈ 6.53 µM) in assay [1] (setting [2]); 100.00 mg/L (≈ 327 µM) in assay [1] (setting [3]); 10.00 mg/L (≈ 32.7 µM) in assay [1] (setting [4]); 10.00 mg/L (≈ 32.7 µM) in assay [1] (setting [5]); 25.00 mg/L (≈ 81.6 µM) in assay [1] (setting [6]). Further, the “Decreases in susceptibility to fluconazole of the isolates” value in assay [1] (resistant isolates relative to susceptible strain) was “up to 400 fold”.

With `CCCCNC(=O)n1c(NC(=O)OC)nc2ccccc21` [benomyl], in the assay on Phomopsis obscurans, the IC50 was less than 6.25 µM.
